From US10300000B2, “Inhibition of melanogenesis by chemically modified curcumins” (The Research Foundation for The State University of New York, priority 2016, dated 2019)

Assays:
[1] = tested on: αMSH-stimulated B16F10 cells; test: Melanin content in αMSH-stimulated B16F10 cells; type: cell-based, mouse; design: unit of the concentration uncertain; conditions: 48 hours
Procedure: (§1) B16F10 cells were seeded at 1×10^5 cells/well in 12-well plates and incubated for 24 hours. The test compounds were then added in presence or absence of αMSH (100 nM), and further incubated for another 48 hours. For evaluation of melanin content, cells were trypsinized, washed in PBS and then 250 μL of 1N NaOH was added and heated to 70° C. to solubilize melanin. The aliquots were then transferred to a 96-well plate and absorbance was read at 475 nm using microplate reader. The absorbance of melanin was normalized by total protein contents and reported as % of control.

[2] = tested on: intracellular ROS in B16F10 cells; test: Intracellular ROS assay (H2DCFDA) in B16F10 cells; type: cell-based, mouse; conditions: B16F10, 25 μM, 48 hours
Procedure: Intracellular ROS generation was quantified using 2′,7′-dichlorodihydrofluorescein diacetate (H2DCFDA), a non-fluorescent dye which is trapped intracellularly by cleavage by intracellular esterases after reaction with reactive oxygen species (ROS); only the product, DCF, is fluorescent. For measuring intracellular ROS, B16F10 cells were seeded in 24 well plates at 4×10^4 cells/well. After 24 hours, media was aspirated and PC, THC and CMCs were added to the wells at different concentrations and further incubated for 48 hours. At the end of the incubations, the media was aspirated and cells were washed with PBS. DCFDA (Molecular Probes) was dissolved in DMSO to make 10 mM stock. DCFDA dye working stock (50 μM) was prepared by diluting the stock in DMEM (serum-free, phenol-red free and sodium pyruvate free) media and added to cells and further incubated for 45 minutes at 37° C. The cells were then washed with DPBS and fluorescence was read in bottom read mode, using a fluorescence microplate reader (Gemini EM Spectramax, Molecular Devices) set to excitation and emission wavelengths of 485 nm and 535 nm, respectively. Data was expressed as relative fluorescence % of treated vs. control.

[3] = tested on: B16F10 mouse melanoma cells; type: cell-based; conditions: B16F10, 5 μM, 48 hours, MTS
Procedure: In order to test the four CMCs (CMC2.14, CMC2.24, CMC2.5 and CMC2.23) alongside PC and THC, for their effects on melanin content, we first screened their nontoxic concentrations using MTS cytotoxicity (Promega CellTiter Aqueous One) assay. MTS is a tetrazolium salt which is reduced to purple colored formazan upon reaction with mitochondrial dehydrogenases. Briefly, B16F10 cells were seeded at 4×10^3 cells/well in 96-well plates for 24 hrs. […] Controls were treated with 0.16% DMSO. At the end of 48 hours, medium was aspirated and replaced by 100 μl of fresh media. MTS (20 μl) was added and incubated for 40 minutes and absorbance read at 490 nm using a Versamax® microplate reader. Cell viability was calculated from the absorbance values relative to control groups and expressed in %.

[4] = tested on: αMSH-stimulated B16F10 cells; test: Melanin content in αMSH-stimulated B16F10 cells; type: cell-based, mouse
Procedure: as §1

## COC(=O)C(C(=O)C=Cc1ccc(O)c(OC)c1)C(=O)C=Cc1ccc(O)c(OC)c1 (centres unmarked) [CMC2.5, 4-methoxycarbonyl curcumin]
[1]; αMSH-stimulated B16F10, 20 (unit uncertain) as printed
  reduction of melanin: 36%
[1]; αMSH-stimulated B16F10, 25 (unit uncertain) as printed
  reduction of melanin: 42%
[2]
  reduction of intracellular ROS: 23%

## COC(=O)C(C(=O)/C=C/c1ccc(O)cc1)C(=O)/C=C/c1ccc(O)cc1 [CMC2.14]
[3]
  increase of cell proliferation: 26.2%

## COc1cc(/C=C/C(=O)C(C(=O)/C=C/c2ccc(O)c(OC)c2)C(=O)Nc2ccccc2)ccc1O [CMC2.23]
[4]
  lightening of cell pellets: visible lightening
